The source of these data is patent publication US20220348572A1, “BRIDGED HETEROCYCLYL-SUBSTITUTED PYRIMIDINE COMPOUND, PREPARATION METHOD THEREFOR, AND PHARMACEUTICAL USE THEREOF” (The National Institutes of Pharmaceutical R&D Co., Ltd., priority 2019, published 2022).

SMILES strings stand for the structures. A value given as a limit tells only on which side of the number the result lay.

Data set [1] is described as follows: Pharmacokinetic study in rats after oral administration. Type of data set: in vivo, SD rats. The following applies: for pharmacokinetic parameters (in words): oral administration in SD rats; for AUC(0-t) / Cmax: rat, male SD rats, oral 5 mg/kg, plasma. The method, then:
Experimental Example 5: Pharmacokinetic Studies of the Compounds of Example 1, Example 1-a, Example 1-b and Example 3 in Rats In order to investigate the blood concentration and pharmacokinetic parameters of the compounds of the present invention after oral administration, the corresponding LC/MS/MS assay and plasma treatment methods were developed for the compounds of the Experimental Examples. […] Male SD rats were orally administered at a dose of 5 mg/kg. Blood was orbitally collected and anticoagulated with sodium heparin. The plasma was deproteinated with acetonitrile. The samples were analyzed by LC/MS/MS method. Wherein, AUC<1000 μg/L*h is shown as C, AUC between 1000-2000 μg/L*h is shown as B, AUC>2000 μg/L*h is shown as A; Cmax<600 μg/L is shown as C, Cmax between 600-900 μg/L is shown as B, and Cmax>900 μg/L is shown as A.

Data set [2] deals with T1, TYK2 kinase (Homo sapiens, UniProt P29597).
T1 sequence (P29597 897-1187 limits assumed): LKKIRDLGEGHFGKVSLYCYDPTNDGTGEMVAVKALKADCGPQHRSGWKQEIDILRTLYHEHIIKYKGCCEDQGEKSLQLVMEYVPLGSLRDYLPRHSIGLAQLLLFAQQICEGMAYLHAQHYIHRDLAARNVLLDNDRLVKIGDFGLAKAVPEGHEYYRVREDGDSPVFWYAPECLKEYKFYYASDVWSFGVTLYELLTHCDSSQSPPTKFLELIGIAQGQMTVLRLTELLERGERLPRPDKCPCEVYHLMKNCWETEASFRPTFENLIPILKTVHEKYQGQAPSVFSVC
The experiment in a line: In vitro inhibitory activity on Tyk2 kinase (ADP-Glo Kinase Assay). Type of data set: biochemical. The note with it: TYK2 kinase 4 nM, 1 mM ATP. How it is done: Test Example 2: Determination of In Vitro Inhibitory Activity of the Compounds of the Present Invention on Tyk2 Kinase Experimental materials: TYK2 (Invitrogen, PV4790), ATP (Promega, V915B), ADP-Glo Kinase Assay (Promega, V9101), IRS1 (Signalchem, 140-58-1000). Sample preparation: The compounds of the present invention and the control product were dissolved in DMSO solvent respectively to formulate into 10 mM initial liquid. The maximum concentration of the compound was 10 μM, 3-fold dilution, 10 concentration gradients, and duplicate wells for each concentration gradient. Experimental process: 0.1 μL of the compound to be tested was transferred into a 384 reaction plate (PE, 6007290) via Echo and centrifuged at 1000 rpm/min for 1 min. 5 μL TYK2 kinase (final concentration of 4 nM) was transferred into the 384 reaction plate, which was then centrifuged at 1000 rpm/min for 1 min, and incubated at 25° C. for 15 min. 5 μL substrate mixture (1 mM ATP, IRS1 0.05 mg/ml, kinase buffer solution) was transferred into the 384 reaction plate, which was then centrifuged at 1000 rpm/min for 1 min, and incubated at 25° C. for 60 min. 10 μL ADP-Glo was transferred into the 384 reaction plate, which was then centrifuged at 1000 rpm/min for 1 min, and incubated at 25° C. for 40 min. 20 μL test solution was transferred into the 384 reaction plate, which was centrifuged at 1000 rpm/min for 1 min and incubated at 25° C. for 40 min. RLU (Relative luminescence unit) signal was read by using an Envision multifunctional plate reader. The signal intensity was used to characterize the degree of the kinase activity. […] IC50 value of 0-100 nM is shown as A, IC50 value of 100-300 nM is shown as B, IC50 value of 300-1000 nM is shown as C, and IC50 value which is greater than 1000 nM is shown as D. NT means not tested.

One may read the AUC(0-t) as the area under the concentration-time curve up to a stated or last time point. Higher therefore signals more exposure. What is called Cmax is the peak of the concentration-time curve. The term IC50 denotes the concentration needed to halve the response being measured. For `Cn1cc(Nc2nccc(C3=CC4CCC(C3)N4C(=O)[C@@H]3CC3(F)F)n2)cn1` (stereo partly drawn) [Compound 1, ((S)-2,2-difluorocyclopropyl)(3-(2-((1-methyl-1H-pyrazol-4-yl)amino)pyrimidin-4-yl)-8-azabicyclo[3.2.1]oct-2-en-8-yl)methanone], in data set [1], the “pharmacokinetic parameters (in words)” value is given as “good pharmacokinetic parameters”, the AUC(0-t) was above 2000 ng·h/mL and the Cmax was above 900 ng/mL. For the same molecule, the IC50 in data set [2] is below 100 nM.
On the same counts, the results for `Cn1cc(Nc2nccc(C3=C[C@H]4CC[C@@H](C3)N4C(=O)[C@@H]3CC3(F)F)n2)cn1` [Compound 1-b, ((S)-2,2-difluorocyclopropyl)((1R,5S)-3-(2-((1-methyl-1H-pyrazol-4-yl)amino)pyrimidin-4-yl)-8-azabicyclo[3.2.1]oct-2-en-8-yl)methanone] are “good pharmacokinetic parameters”, above 2000 ng·h/mL, above 900 ng/mL and below 100 nM.
On the same counts, the results for `Cn1cc(Nc2nccc(C3=CC4CCC(C3)N4C(=O)NCC(F)(F)F)n2)cn1` (stereo not drawn) [Compound 3, 3-(2-((1-methyl-1H-pyrazol-4-yl)amino)pyrimidin-4-yl)-N-(2,2,2-trifluoroethyl)-8-azabicyclo[3.2.1]oct-2-ene-8-carboxamide] are “good pharmacokinetic parameters”, 1000 to 2000 ng·h/mL, 600 to 900 ng/mL and below 100 nM.
